Results on 2 compounds are retold here after publication PMC8160210, “Single tryptophan Y160W mutant of homooligomeric E. coli purine nucleoside phosphorylase implies that dimers forming the hexamer are functionally not equivalent” (Scientific Reports, 2021).

Each structure is given as a SMILES string. pKd: −log10 of the molar value. Like-named read-outs stand apart in the source and are kept apart here.

For one assay, the target named is T1, Y160W mutant/Pi complex (Escherichia coli, UniProt P0ABP8, Y161W).
T1 construct: made in house; host or cells: E. coli DH5α-T1
Kind of assay: Calorimetric (ITC) titrations with formycin A. Also on record: species or system E. coli. On the procedure: The isothermal titration experiments were performed on the MicroCal iTC200 (Malvern) microcalorimeter. […] All experiments were carried out at 25°C. For the WT protein series of three calorimetric titrations, with protein concentration in the range of 70 to 800 μM, for the Y160W mutant series of four titration with protein concentration in the range of 300 μM to 1.3 mM were performed. Samples of each protein used for these series came from a single preparation. Ligand samples were 8–12 times more concentrated than the protein sample, in order to achieve a diverse ligand/protein molar ratio during titration and thus better explore binding curves. In some ITC experiments, in order to sample the lower plateau region more accurately, several initial points were measured with less ligand volume added at each step than used in the subsequent titration points measurements. An example of the ITC data is shown in the Supplementary Information (Figure S6). Raw thermograms were analysed with NITPIC[43]. Global analysis of titration curves was performed with Sedphat[20],[21].
Three models were taken into account in analysis of binding curves: model with one (first equation below), two (first two equations) and three binding sites. P+L⇔PLwithKd1PL+L⇔PLLwithKd2PLL+L⇔PLLLwithKd3
The model with one binding site is based on the assumption that all monomers are equivalent, and there is no cooperation between them. In the model with two binding sites the basic functional unit of the protein is a dimer, possible non-equivalence of binding sites or cooperativity between active sites in the dimer are taken into account (in the case of no cooperativity dissociation constants should be related statistically: Kd2 = 4Kd1), the dimers within hexamer are equivalent. The model with three binding sites is based on the crystallographic structures of binary and ternary complexes of PNP with ligands, where two of the dimers are in the “open-closed” conformation, but the third dimer is symmetrical, in the “open-open” conformation. Thus, active sites in the open conformation belonging to “open-closed” and “open-open” dimer may not be equivalent. This model takes into account possibility of cooperation between all monomers within a hexameric molecule of the protein (in the case of no cooperativity dissociation constants should be related statistically: Kd3 = 9Kd1, Kd2 = 3Kd1).
Titration series were analysed globally, always starting from the simplest, one-binding-site model. […] For all tested models the Akaike information criterion[23] was also calculated. Generally both criteria used in the discrimination analysis were pointing the same model as best describing the data. The only exception was thermophoretic titration of the WT protein with formycin A, and it is described in details in the Results. Analysed models were fitted to the raw data, whereas graphs presented in this study were prepared from the normalised data and the fitted curves. The parameters of the fit are dissociation constants and responses of the system. Responses are defined as changes in a measured physical quantity related to the formation of subsequent protein–ligand complexes: intrinsic protein fluorescence intensity, fluorescence intensity of the dye, heat and ellipticity for fluorimetric, thermophoretic, calorimetric and CD titrations, respectively. Responses are normalised for the protein concentration present in the titration, thus giving molar coefficients.

The target of another assay is T2, WT E. coli PNP (Escherichia coli, UniProt P0ABP8).
T2 construct: made in house
T2 sequence (P0ABP8 2-239 limits assumed): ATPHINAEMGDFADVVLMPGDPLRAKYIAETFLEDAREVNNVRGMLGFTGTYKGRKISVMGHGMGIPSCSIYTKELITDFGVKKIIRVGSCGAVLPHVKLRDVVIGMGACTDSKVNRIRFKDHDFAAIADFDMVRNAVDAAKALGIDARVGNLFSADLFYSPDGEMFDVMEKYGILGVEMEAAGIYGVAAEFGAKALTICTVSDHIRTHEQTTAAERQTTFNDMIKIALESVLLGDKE
Kind of assay: Fluorescence titrations with phosphate. To be noted: three-binding-site model, 25 °C. The procedure: All experiments were carried out on the Perkin-Elmer LS55 spectrofluorimeter. Fluorescence spectra were registered using in each case (protein or protein–ligand complex) several excitation wavelengths. Differential spectra were calculated by subtracting spectrum of a protein from the spectrum of the appropriate complex. The negative differential fluorescence intensity means that a decrease of fluorescence upon complex formation is observed. Titrations of the enzyme with phosphate were registered using several excitation and observation wavelengths combinations. When selecting specific wavelengths for such a combination, two criteria were used: (1) the overall change in the fluorescence signal and (2) the complexity of the shape of the titration as the analysis of the multi-phasic curves is more explicit than a uni-phasic curve analysis.
Path length for the excitation was 2 mm and for the emission was 5 mm (half of the cuvette dimensions). A continuous stirring was used during titrations. All measurements were performed at 25 °C. […]
Fluorescence intensity of the WT protein is stable over time, but in the case of the Y160W mutant a slight quenching of fluorescence is observed during titration, which typically lasted about 30 min as the time between each point in the titration was 1 min. Furthermore, adding phosphate during titration stabilises the intrinsic fluorescence of the protein. […] Thus corrected binding curves, F^cor([Pi]), are given by the following equation, in which Fn([Pi]) is the fluorescence intensity measured for the phosphate concentration [Pi], and n is the number of a given titration point in the particular titration:4 FncorPi=FnPi+∑m=1naPim
To check its influence on the intrinsic protein fluorescence, titrations with NaCl were performed, giving dependence F(I). […] Titration curves of the WT protein with phosphate were therefore measured up to 100 mM ionic strength of solution, which is enough to observe a plateau. […] Both F^obs([Pi]) and F(I) were corrected for the time dependent fluorescence quenching, according to Eq. (4), prior to the F^bind([Pi]) calculation. […]

T1 sequence (P0ABP8 2-239 Y161W, one chain of several): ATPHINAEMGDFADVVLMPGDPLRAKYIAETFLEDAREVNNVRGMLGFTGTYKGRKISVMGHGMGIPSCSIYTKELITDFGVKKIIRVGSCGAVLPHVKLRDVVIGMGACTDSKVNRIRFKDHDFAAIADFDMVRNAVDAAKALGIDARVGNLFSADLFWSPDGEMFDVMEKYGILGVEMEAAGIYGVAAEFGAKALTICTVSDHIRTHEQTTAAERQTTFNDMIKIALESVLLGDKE

Regarding `Nc1ncnc2c([C@@H]3O[C@H](CO)[C@@H](O)[C@H]3O)[nH]nc12` [FA, Formycin A], the pKd on Y160W mutant/Pi complex (Kd1 ± SD, three-binding-site model, 50 mM phosphate, pH 7.6, 25 °C) is 5.17; at Y160W mutant/Pi complex (Kd3 ± SD, three-binding-site model, 50 mM phosphate, pH 7.6, 25 °C) it was 3.18; on Y160W mutant/Pi complex (read-out: Kd2 ± SD, three-binding-site model, 50 mM phosphate, pH 7.6, 25 °C), 3.83.
`O=P(O)(O)O` [Pi, Orthophosphate]: the pKd on WT E. coli PNP (50 mM Tris/HCl pH 7.6, read-out: Kd1 ± SD) is 5.36; on WT E. coli PNP (50 mM Tris/HCl pH 7.6, read-out: Kd2 ± SD), 4.08; at WT E. coli PNP (50 mM Tris/HCl pH 7.6, read-out: Kd3 ± SD) it was 2.75.
